In patent US6486185B1, “3-heteroarylidene-2-indolinone protein kinase inhibitors” (Sugen, Inc., priority 1997, dated 2002) one finds IC50 data, which are given here for two molecules.

One experiment concerns the target T1, EGFR (Homo sapiens, UniProt P00533).
T1 construct: expressed in transfected cells; host or cells: NIH 3T3/C7
Kind of experiment: EGF receptor ELISA in cells engineered to express human EGF-R. The experiment is classed as cell-based. To be noted: 50% inhibition of PTK activity over control. How it is done: (§1) The cellular/catalytic assays described herein are performed in an ELISA format. The general procedure is a follows: a compound is introduced to cells expressing the test kinase, either naturally or recombinantly, for some period of time after which, if the test kinase is a receptor, a ligand known to activate the receptor's activity is added. The cells are lysed and the lysate is transferred to the wells of an ELISA plate previously coated with a specific antibody recognizing the substrate of the enzymatic phosphorylation reaction. Non-substrate components of the cell lysate are washed away and the amount of phosphorylation on the substrate is detected with an antibody specifically recognizing phosphotyrosine compared with control cells that were not contacted with a test compound.
EGF Receptor kinase activity in cells genetically engineered to express human EGF-R can be measured as described below:
The following materials and reagents are used
a. EGF Ligand: stock concentration=16.5 μM; EGF 201, TOYOBO, Co., Ltd. Japan.
b. 05-101 (UBI) (a monoclonal antibody recognizing an EGFR extracellular domain).
c. Anti-phosphotyosine antibody (anti-Ptyr) (polyclonal).
d. Detection antibody: Goat anti-rabbit lgG horse radish peroxidase conjugate, TAGO, Inc., Burlingame, Calif.
Keep solution in dark at 4 C until used.
The following protocol is used:
1. Coat ELISA plates (Corning, 96 well, Cat. #25805-96) with 05-101 antibody at 0.5 μg per well in PBS, 150 μL final volume/well, and store overnight at 4° C. Coated plates are good for up to 10 days when stored at 4° C.
2. On day of use, remove coating buffer and replace with blocking buffer (5% Carnation Instant NonFat Dry Milk in PBS). Incubate the plate, shaking, at room temperature (about 23° C. to 25° C.) for 30 minutes. Just prior to use, remove blocking buffer and wash plate 4 times with TBST buffer.
1. NIH 3T3/C7 cell line (Honegger, et al., Cell 51:199-209, 1987) can be use for this assay.
2. Choose dishes having 80-90% confluence for the experiment. Trypsinize cells and stop reaction by adding 10% CS DMEM medium. Suspend cells in DMEM medium (10% CS DMEM medium) and centrifuge once at 1000 rpm at room temperature for 5 minutes.
3. Resuspend cells in seeding medium (DMEM, 0.5% bovine serum), and count the cells using trypan blue. Viability above 90% is acceptable. Seed cells in DMEM medium (0.5% bovine serum) at a density of 10,000 cells per well, 100 μL per well, in a 96 well microtiter plate. Incubate seeded cells in 5% CO2 at 37° C. for about 40 hours.
1. Check seeded cells for contamination using an inverted microscope. Dilute drug stock (10 mg/mL in DMSO) 1:10 in DMEM medium, then transfer 5 μL to a test well for a final drug dilution of 1:200 and a final DMSO concentration of 1%. Control wells receive DMSO alone. Incubate in 5% CO2 at 37° C. for one hour.
2. Prepare EGF ligand: dilute stock EGF in DMEM so that upon transfer of 10 μL dilute EGF (1:12 dilution), 25 nM final concentration is attained.
3. Prepare fresh 10 mL HNTG* sufficient for 100 μL per well wherein HNTG* comprises: HNTG stock (2.0 mL), milli-Q H2O (7.3 mL), EDTA, 100 mM, pH 7.0 (0.5 mL), Na3VO4 0.5 M (0.1 mL) and Na4(P2O7), 0.2 M (0.1 mL).
5. After two hours incubation with drug, add prepared EGF ligand to cells, 10 μL per well, to yield a final concentration of 25 nM. Control wells receive DMEM alone. Incubate, shaking, at room temperature, for 5 minutes.
6. Remove drug, EGF, and DMEM. Wash cells twice with PBS. Transfer HNTG* to cells, 100 μL per well. Place on ice for 5 minutes. Meanwhile, remove blocking buffer from other ELISA plate and wash with TBST as described above.
7. With a pipette tip securely fitted to a micropipettor, scrape cells from plate and homogenize cell material by repeatedly aspirating and dispensing the HNTG* lysis buffer. Transfer lysate to a coated, blocked, and washed ELISA plate. Incubate shaking at room temperature for one hour.
8. Remove lysate and wash 4 times with TBST. […]

Another experiment has as its target T2, IGF-1R (Homo sapiens, UniProt P08069).
T2 construct: expressed in transfected cells; host or cells: NIH3T3 (3T3/IGF-1R)
Description: IGF-I receptor ELISA in 3T3/IGF-1R cells. The format is cell-based. To be noted: 50% inhibition of PTK activity over control. How it is done:
as §1
The following protocol may be used to measure phosphotyrosine level on IGF-I receptor, which indicates IGF-I receptor tyrosine kinase activity.
The following materials and reagents are used:
a. The cell line used in this assay is 3T3/IGF-1R, a cell line genetically engineered to overexpresses IGF-1 receptor.
b. NIH3T3/IGF-1R is grown in an incubator with 5% CO2 at 37° C. The growth media is DMEM+10% FBS (heat inactivated)+2 mM L-glutamine.
c. Affinity purified anti-IGF-1R antibody 17-69.
e. Blocking Buffer: TBST plus 5% Milk (Carnation Instant Non-Fat Dry Milk).
Stock solution of TBS (10×) is prepared, and Triton X-100 is added to the buffer during dilution.
Stock solution (5×) is prepared and kept at 4° C.
h. EDTA/HCl: 0.5 M pH 7.0 (NaOH) as 100×stock.
i. Na3VO4: 0.5 M as 100×stock and aliquots are kept in −80° C.
k. Insulin-like growth factor-1 from Promega (Cat# G5111).
l. Rabbit polyclonal anti-phosphotyrosine antiserum.
m. Goat anti-rabbit IgG, POD conjugate (detection antibody), Tago (Cat. No. 4520, Lot No. 1802): Tago, Inc., Burlingame, Calif.
n. ABTS (2,2′-azinobis(3-ethylbenzthiazolinesulfonic acid)) solution:
ABTS solution should be kept in dark and 4° C. The solution should be discarded when it turns green.
o. Hydrogen Peroxide: 30% solution is kept in the dark and at 4° C.
All the following steps are conducted at room temperature unless it is specifically indicated. All ELISA plate washings are performed by rinsing the plate with tap water three times, followed by one TBST rinse. Pat plate dry with paper towels.
1. The cells, grown in tissue culture dish (Corning 25020-100) to 80-90% confluence, are harvested with Trypsin-EDTA (0.25%, 0.5 mL/D-100, GIBCO).
2. Resuspend the cells in fresh DMEM+10% FBS+2 mM L-Glutamine, and transfer to 96-well tissue culture plate (Corning, 25806-96) at 20,000 cells/well (100 μL/well). Incubate for 1 day then replace medium to serum-free medium (90/μL) and incubate in 5% CO2 and 37° C. overnight.
B. ELISA Plate Coating and Blocking:
1. Coat the ELISA plate (Corning 25805-96) with Anti-IGF-1R Antibody at 0.5 μg/well in 100 μL PBS at least 2 hours.
2. Remove the coating solution, and replace with 100 μL Blocking Buffer, and shake for 30 minutes. Remove the blocking buffer and wash the plate just before adding lysate.
1. The drugs are tested in serum-free condition.
2. Dilute drug stock (in 100% DMSO) 1:10 with DMEM in 96-well poly-propylene plate, and transfer 10 μL/well of this solution to the cells to achieve final drug dilution 1:100, and final DMSO concentration of 1.0%. Incubate the cells in 5% CO2 at 37° C. for 2 hours.
3. Prepare fresh cell lysis buffer (HNTG*)
4. After drug incubation for two hours, transfer 10 μL/well of 200 nM IGF-1 Ligand in PBS to the cells (Final Conc.=20 nM), and incubate at 5% CO2 at 37° C. for 10 minutes.
5. Remove media and add 100 μL/well HNTG* and shake for 10 minutes. Look at cells under microscope to see if they are adequately lysed.
6. Use a 12-channel pipette to scrape the cells from the plate, and homogenize the lysate.by repeated aspiration and dispensing. Transfer all the lysate to the antibody coated ELISA plate, and shake for 1 hour.
7. […]

Some results are limits rather than exact numbers.

T2 sequence (P08069 31-1367, species assumed): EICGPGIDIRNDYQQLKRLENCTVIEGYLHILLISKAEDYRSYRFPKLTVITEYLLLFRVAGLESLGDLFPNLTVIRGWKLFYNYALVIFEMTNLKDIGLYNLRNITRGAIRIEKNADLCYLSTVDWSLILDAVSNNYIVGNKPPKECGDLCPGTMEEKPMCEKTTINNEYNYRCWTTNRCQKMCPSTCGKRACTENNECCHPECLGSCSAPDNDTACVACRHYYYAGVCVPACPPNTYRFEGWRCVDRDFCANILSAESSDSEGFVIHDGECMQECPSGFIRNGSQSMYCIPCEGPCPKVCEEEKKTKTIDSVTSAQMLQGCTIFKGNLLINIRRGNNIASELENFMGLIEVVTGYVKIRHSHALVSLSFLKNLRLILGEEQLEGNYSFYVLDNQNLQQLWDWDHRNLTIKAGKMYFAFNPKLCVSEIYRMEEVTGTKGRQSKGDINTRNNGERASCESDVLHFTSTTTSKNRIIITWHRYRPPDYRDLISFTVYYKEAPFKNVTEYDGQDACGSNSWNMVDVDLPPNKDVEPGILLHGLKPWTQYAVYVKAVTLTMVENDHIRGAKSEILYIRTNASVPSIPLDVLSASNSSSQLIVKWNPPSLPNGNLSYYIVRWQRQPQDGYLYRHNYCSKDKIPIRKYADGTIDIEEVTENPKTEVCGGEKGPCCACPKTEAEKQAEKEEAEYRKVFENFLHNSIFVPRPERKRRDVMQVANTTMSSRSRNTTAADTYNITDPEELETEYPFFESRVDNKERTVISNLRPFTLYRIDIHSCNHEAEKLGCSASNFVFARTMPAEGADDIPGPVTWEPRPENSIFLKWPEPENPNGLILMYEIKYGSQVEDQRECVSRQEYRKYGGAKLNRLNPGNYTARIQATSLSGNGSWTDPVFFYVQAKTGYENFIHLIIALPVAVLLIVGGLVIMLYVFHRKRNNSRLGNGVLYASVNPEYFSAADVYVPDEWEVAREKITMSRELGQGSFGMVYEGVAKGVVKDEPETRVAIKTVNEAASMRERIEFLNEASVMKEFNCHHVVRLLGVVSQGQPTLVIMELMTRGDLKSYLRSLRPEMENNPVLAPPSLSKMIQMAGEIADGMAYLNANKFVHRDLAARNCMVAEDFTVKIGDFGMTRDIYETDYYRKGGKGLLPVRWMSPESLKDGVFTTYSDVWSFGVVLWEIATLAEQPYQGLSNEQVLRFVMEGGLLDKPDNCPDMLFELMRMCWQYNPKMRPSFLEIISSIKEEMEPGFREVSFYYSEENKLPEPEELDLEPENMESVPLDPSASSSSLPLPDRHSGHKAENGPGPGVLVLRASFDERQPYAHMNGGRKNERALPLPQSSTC
T1 sequence (P00533 25-1210): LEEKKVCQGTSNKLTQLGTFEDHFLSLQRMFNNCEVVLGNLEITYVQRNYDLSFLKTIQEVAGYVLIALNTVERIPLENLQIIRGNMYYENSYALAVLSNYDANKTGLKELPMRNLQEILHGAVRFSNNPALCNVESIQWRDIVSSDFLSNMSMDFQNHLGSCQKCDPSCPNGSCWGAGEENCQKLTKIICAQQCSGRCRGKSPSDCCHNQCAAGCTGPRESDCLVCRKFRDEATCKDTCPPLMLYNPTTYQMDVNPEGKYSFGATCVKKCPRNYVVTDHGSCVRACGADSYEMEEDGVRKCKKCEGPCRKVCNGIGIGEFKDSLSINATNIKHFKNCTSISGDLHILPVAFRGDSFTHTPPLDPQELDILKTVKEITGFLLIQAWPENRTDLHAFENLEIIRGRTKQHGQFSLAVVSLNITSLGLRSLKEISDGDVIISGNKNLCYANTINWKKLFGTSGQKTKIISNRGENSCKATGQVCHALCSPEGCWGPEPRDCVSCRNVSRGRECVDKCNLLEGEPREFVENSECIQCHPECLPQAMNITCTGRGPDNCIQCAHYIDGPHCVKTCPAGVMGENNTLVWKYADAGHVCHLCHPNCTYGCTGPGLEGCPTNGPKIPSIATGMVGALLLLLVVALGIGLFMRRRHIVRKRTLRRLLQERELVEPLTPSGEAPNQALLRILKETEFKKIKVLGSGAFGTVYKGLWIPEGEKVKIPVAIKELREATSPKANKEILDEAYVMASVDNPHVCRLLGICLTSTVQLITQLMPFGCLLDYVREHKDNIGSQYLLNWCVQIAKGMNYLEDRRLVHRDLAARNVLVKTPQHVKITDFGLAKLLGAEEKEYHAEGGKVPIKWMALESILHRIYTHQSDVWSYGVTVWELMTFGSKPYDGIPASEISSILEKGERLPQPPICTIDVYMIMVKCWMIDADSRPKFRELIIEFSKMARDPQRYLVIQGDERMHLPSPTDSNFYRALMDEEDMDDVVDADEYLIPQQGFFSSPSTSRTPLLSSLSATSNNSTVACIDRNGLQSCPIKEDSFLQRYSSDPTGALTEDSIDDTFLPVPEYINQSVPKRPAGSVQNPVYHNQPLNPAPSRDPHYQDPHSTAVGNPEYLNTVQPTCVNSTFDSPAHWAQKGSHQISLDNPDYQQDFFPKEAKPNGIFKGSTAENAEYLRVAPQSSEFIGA

Consider `CCc1c(C=C2C(=O)Nc3ccccc32)[nH]c(C(=O)O)c1C` [3-(2-carboxy-4-ethyl-3-methylpyrrol-5-methylidenyl)-2-indolinone], for which the IC50 against EGFR and at IGF-1R was above 100 µM throughout.

On to `CCOC(=O)c1c(C)[nH]c(C=C2C(=O)Nc3ccccc32)c1C` [3-(2,4-dimethyl-3-ethoxycarbonylpyrrol-5-methylidenyl)-2-indolinone], for which the IC50 against EGFR and at IGF-1R was above 100 µM throughout.
